Source: US20100168228A1, “NOVEL CHEMOTHERAPEUTIC AGENTS AGAINST INFLAMMATION AND CANCER” (RELIANCE LIFE SCIENCES PVT. LTD., priority 2006, published 2010)

Tests used:
NF-κB = NF-κB activation assay (Transfactor ELISA on nuclear extracts), Jurkat; assay type: cell-based, human; details: pretreated 3 h
Description: Cell pellet was resuspended in lysis buffer (10 mM HEPES, pH 7.9, 1.5 mM MgCl2, 10 mM KCl, 1 mM PMSF, 1 mMDTT, 0.5% NP 40, 0.1 mM EGTA and 0.1 mM EDTA) and allowed to swell on ice for 15 min, followed by centrifugation at 3300×g for 20 min. The cell pellet was resuspended in a volume of lysis buffer equal to the cell pellet volume. The cell suspension was slowly drawn down into a syringe and ejected the content in a single stroke. Disrupted cells were incubated for 15 min on ice, and the disrupted cell suspension was centrifuged at 10,000×g for 20 min at 4° C. Nuclear pellet was resuspended in a volume of extraction buffer (20 mM HEPES; pH 7.9, 25% glycerol, 1.5 mM MgCl2, 420 mM NaCl, 0.1 mM EDTA, 0.1 mM EGTA, 1 mM PMSF and 1 mM DTT) and incubated on ice for 30 min. The nuclear suspension was centrifuged at 21,000×g for 15 min at 4° C. and the supernatant was collected as nuclear extract and stored at −70° C. Protein concentration was estimated using standard Bradford method.
To determine NF-κB activation, transcription profiling was done with the BD Mercury Transfactor kit obtained from BD Biosciences. This method provides rapid, high-throughput detection of specific transcription factors eg NFκB in the nuclear extract. Using an enzyme-linked immunosorbent assay (ELISA)-based format, the Transcription Factor kit detects the DNA binding by specific transcription factors.
The assay was performed by using wells coated with oligonucleotides having the consensus DNA binding sites for the specific transcription factors. 50 μg of the nuclear extract proteins were incubated in the wells precoated with their specific oligonucletides, and allowed the activated NFκB to bind to their consensus sequence. Bound transcription factor was detected by a specific Primary Antibody. A horseradish peroxidase conjugated Secondary Antibody was then used to detect the bound Primary Antibody. After addition of the substrate, the Absorbance was recorded at 655 nm. […]

Jurkat cells = test: Lipid peroxidation, TBARS assay; assay type: cell-based, human; details: pretreated 3 h, TNF 1 nM 1 h
Description: Lipid peroxidation was assessed by the TBARS assay, which detects mainly malondialdehyde (MDA), a product of the peroxidation of polyunsaturated fatty acids and related esters. TBARS were measured by a modification of the method described previously, (Ohkawa et al., Anal. Biochem. 95:351-358. (1979)). Jurkat cells, 6×10^6 cells in 2 ml were pretreated with either media or different concentrations of CAMVE (as described in the Figure legends) for 3 h and then stimulated with 1 nM TNF for 1 h. Cells were washed before undergoing three cycles of freeze-thawing in 200 μl of water. A 20 μl aliquot was subsequently removed for Bradford protein determination, and 800 μl of assay mix (0.4% (w/v) thiobarbituric acid, 0.5% (w/v) SDS, 9.4% (v/v) acetic acid, pH 3.5) was added to the remaining sample. Samples were incubated for 60 min at 95° C., cooled at room temperature, and centrifuged at 14,000×g for 10 min, and the absorbance of the supernatants was read at 532 nm against a standard curve prepared using the MDA standard (10 mM 1,1,3,3-tetramethoxypropane in 20 mM Tris-HCL, pH 7.4). Results were calculated as nmol of MDA equivalents/mg of protein and expressed as a percentage of matched control values.

U937 = test: Cytotoxicity (MTT) in different human tumor cell lines; assay type: cell-based; details: 30 μM, 72 h
Description: FIG. 9: CAMVE induces differential cytotoxicity in different human tumor cell lines. Different human tumor cell lines were cultured either in the presence or absence of CAMVE (30 μM) for 72 h. The MTT assay was done and absorbance taken at 570 nm. The result indicated are mean O.D. of triplicate culture.
Cytotoxicity was assayed by the modified tetrazolium salt 3-(4,5-dimethylthiazol-2-yl)-2,5-diphenyltetrazolium bromide (MTT) assay as described by Plumb, J A et al. (Cancer Res. 1989 Aug. 15; 49(16):4435-4440).

p65 = test: Nuclear translocation of p65 NF-kB by immunocytochemistry, HeLa; assay type: cell-based, human; details: 15 μM 3 h, 0.1 nM TNF
Description: FIG. 5: Effect of CAMVE on TNF or LPS induced nuclear translocation of p65. A. HeLa cells either untreated or pretreated with 15 μM CAMVE for 3 h at 37° C. were stimulated with 0.1 nM TNF and immunocytochemical analysis were performed as described in “Materials and Methods”. B. Jurkat (5×10^5 cells/ml) cells were pretreated with indicated concentrations of CAMVE for 3 h and then stimulated with 0.1 nM of TNF for 30 min or 100 ng/ml of SA-LPS (serum activated LPS) for 15 min. After these treatments, cells were washed twice with PBS and nuclei were isolated by incubating the cells with […] Pipes-Triton buffer for 30 min at 4° C. Nuclei were stained for p65 and analyzed using FACS. (i). Representative histogram overlay showing TNF or LPS stimulated (1), basal (2), CAMVE stimulated (3), p65 staining in the nucleus. (ii). Ordinates gives the Isotype-corrected MFI for various treatments.
Hela cells grown on cover slips were washed with 0.1M potassium phosphate buffer (pH 7.4) and fixed with 4% formaldehyde in 0.1M potassium phosphate buffer (pH 7.4) for 1 h at room temperature. The cells were permeabilized with 0.1% Triton X-100 in PBS for 1 h. […] After counterstaining for nuclei with DAPI or Hoechst for 5 mins slides were analyzed under a fluorescence microscope (Labophot-2. Nikon, Tokyo, Japan).

HeLa cells = test: Apoptosis by PARP cleavage (FACS), HeLa; assay type: cell-based, human; details: 100 nM, 24 h
Description: FIG. 19: Effect of compound 27 on the apoptosis in cells with different p53 status. Extent of apoptosis in different cells was measured by staining the cells for PARP cleavage followed by FACS analysis. Cells were treated with 100 nM of the compound for 24 h and the level of apoptosis was seen. Percentage apoptotic populations are represented as the M2 gated population.
PARP Cleavage Assay using Flow Cytometry: Extent of PARP cleavage is determined using polyclonal antibody specifically recognizing the 85 kDa fragment of cleaved PARP (NSB 699 Novus Biologicals) and can be used as a marker for detecting apoptotic cells. Treated cells were fixed with 70% chilled ethanol and permeabilized for 30 min at RT (PBS+0.5% BSA+0.02% NaN3+0.5% saponin) and stained with anti PARP-FITC (10 μl/10^6 cells) for one hour at RT. Cells were washed twice with wash buffer (PBS+1% heat inactivated FBS) and analysed using FACS.

SMILES: COC(=O)c1ccc(OC(=O)/C=C/c2ccc(O)c(O)c2)c(OC)c1 [compound 1, Methyl 4-{[(2E)-3-(3,4-dihydroxyphenyl)prop-2-enoyl]oxy}-3-methoxybenzoate]
- TNF induced NF-κB activation (NF-κB; 0.1 nM TNF 30 min): inhibited this activation in a concentration dependent manner
- concentration of maximum inhibition of TNF induced NF-κB activation (NF-κB; 0.1 nM TNF 30 min): 15 µM
- LPS induced NF-κB activation (NF-κB; 100 ng/ml SA-LPS 30 min): blocked by CAMVE
- TNF induced lipid peroxidation (Jurkat cells): significantly suppressed by CAMVE in a dose dependent manner
- CAMVE mediated cell death (MTT), sensitivity among tumor cell lines (U937): most sensitive to CAMVE treatment
- TNF induced p65 nuclear translocation (immunofluorescence) (p65): did not show p65 signal

SMILES: COc1cc([C@@H]2Oc3c(OC)cc(/C=C/C(=O)O)cc3[C@H]2C(=O)O)ccc1O [compound 27, 5-[(E)-2-carboxyvinyl]-2β-(4-hydroxy-3-methoxyphenyl)-7-methoxy-2,3-dihydro-1-benzofuran-3α-carboxylic acid]
- level of apoptosis (PARP cleavage) (HeLa cells): significant induction of apoptosis
